Patent US20240181022A1, “AMURINS LYSINS, AND LYSIN-ANTIMICROBIAL PEPTIDE (AMP) CONSTRUCTS ACTIVE AGAINST GRAM-NEGATIVE BACTERIA” (priority 2021, published 2024)
Values after ≈ are worked out from the molar mass of the structure shown. Read-outs that look alike come from different tables or passages of the source. Where a SMILES comes first, the peptide text is derived from it. Where no end group is shown, it is not given here. [ ]: non-standard residue; d: D form.

How the values were obtained:
M. fortuitum = test: MIC against M. fortuitum; assay type: cell-based, Mycobacterium fortuitum; conditions: M. fortuitum (ATCC 6841); CAAT media
M. smegmatis = test: MIC against M. smegmatis; assay type: cell-based, Mycobacterium smegmatis; conditions: M. smegmatis (MC 155); CAAT media
M. abscessus = test: MIC against MDR M. abscessus isolates; assay type: cell-based, Mycobacterium abscessus; conditions: 7 days; for MIC: AST media (CAAT); for activity (MIC) against M. abscessus: 5 clinical MDR strains and 1 ATCC strain, CAAT
M. tuberculosis = assay type: cell-based, Mycobacterium tuberculosis
Mycobacterium species = assay type: cell-based
M. kansasii = test: MIC against M. kansasii; assay type: cell-based, Mycobacterium kansasii; conditions: M. kansasi (ATCC 12478); CAAT media
M. scrofulaceum = test: MIC against M. scrofulaceum; assay type: cell-based, Mycobacterium scrofulaceum; conditions: M. scrofulaceum (ATCC 19981); CAAT media
M. avium = test: MIC against M. avium; assay type: cell-based, Mycobacterium avium; conditions: M. avium (ATCC 700898); CAAT media
M. intracellulare = test: MIC against M. intracellulare; assay type: cell-based, Mycobacterium intracellulare; conditions: M. intracellulare (ATCC 13950); CAAT media
K. pneumoniae = test: Checkerboard synergy assay (FICI) against K. pneumoniae; assay type: cell-based, Klebsiella pneumoniae; conditions: K. pneumoniae HM-44
Experimental: (§1) Any known method to assess MIC may be used.
(§2) Checkerboards are constructed by first preparing columns of e.g., a 96-well polypropylene microtiter plate, wherein each well has the same amount of antibiotic diluted 2-fold along the horizontal axis. […] Bacteria are added to the drug combinations at concentrations of 1×10^5 […] in CAA, for example, with or without human serum or pulmonary surfactant. […] Summation fractional inhibitory concentrations (ΣFICs) are calculated for each drug and the minimum ΣFIC value (ΣFICmin) is used to determine the effect of the Chp peptide/antibiotic combination.
(§3) GN370 was further tested in combination with up to seven additional antibiotics (in addition to meropenem) against a variety of bacterial strains, including P. aeruginosa, A. baumannii, E. coli, E. cloacae, and K. pneumoniae. GN370 and the subject antibiotics were tested in a checkerboard assay format, and FICI values were determined, wherein ≤0.5 indicates synergy, >0.5-≤1 indicates additive; and >1 indicates indifferent.

P. aeruginosa = test: Checkerboard synergy assay (FICI) with antibiotics against P. aeruginosa; assay type: cell-based, Pseudomonas aeruginosa; conditions: P. aeruginosa ATCC 27853; checkerboard
Experimental: as §1, §2
The synergy of GN370 with meropenem was evaluated against 3 different strains of P. aeruginosa and three different strains of B. cenocepacia.
as §3

A. baumannii = test: Checkerboard synergy assay (FICI) against A. baumannii; assay type: cell-based, Acinetobacter baumannii; conditions: A. baumannii ATCC BAA-747
Experimental: as §1, §2, §3

E. cloacae = test: Checkerboard synergy assay (FICI) against E. cloacae; assay type: cell-based, Enterobacter cloacae; conditions: E. cloacae ATCC 13047
Experimental: as §1, §2, §3

[1] = M. abscessus strain BK51403 (ATCC 19977)
[2] = M. tuberculosis (ATCC 35817), (ADC, T) media
[3] = M. tuberculosis strain TN8109_LB (MDR), 7H9 broth, 20 days
[4] = M. tuberculosis strain TN8562_M33 (susc), 7H9 broth, 20 days
[5] = M. tuberculosis strain TN10525_LL (MDR), 7H9 broth, 20 days
[6] = M. tuberculosis strain TN10571_KY (MDR), 7H9 broth, 20 days
[7] = M. tuberculosis strain TN12657_KQ15 (IS), 7H9 broth, 20 days
[8] = M. tuberculosis strain TN13923_HD17 (susc), 7H9 broth, 20 days
[9] = M. tuberculosis strain TN18349_W738 (susc), 7H9 broth, 20 days
[10] = M. tuberculosis strain TN34503_001 (susc), 7H9 broth, 20 days
[11] = 30 amurin peptides, seven species, CAAT media

## CC[C@H](C)[C@H](NC(=O)CNC(=O)CNC(=O)[C@H](CCCNC(=N)N)NC(=O)[C@H](CCSC)NC(=O)[C@@H](NC(=O)[C@H](CCCNC(=N)N)NC(=O)[C@H](CCCNC(=N)N)NC(=O)[C@H](CC(C)C)NC(=O)[C@H](CCCNC(=N)N)NC(=O)[C@H](CC(N)=O)NC(=O)[C@H](CCCNC(=N)N)NC(=O)[C@@H]1CCCN1C(=O)[C@H](Cc1c[nH]cn1)NC(=O)[C@H](CCSC)NC(=O)[C@H](CCCNC(=N)N)NC(=O)[C@H](CC(C)C)NC(=O)[C@H](C)NC(=O)[C@@H](NC(=O)[C@H](CCCNC(=N)N)NC(=O)[C@H](CO)NC(=O)[C@H](Cc1ccccc1)NC(=O)[C@H](CC(C)C)NC(=O)[C@H](CCCNC(=N)N)NC(=O)[C@H](CCCNC(=N)N)NC(=O)[C@H](CO)NC(=O)[C@H](CCCNC(=N)N)NC(=O)[C@H](CCCNC(=N)N)NC(=O)[C@H](CCCNC(=N)N)NC(=O)[C@@H]1CCCN1C(=O)[C@H](CC(C)C)NC(=O)[C@H](CCCNC(=N)N)NC(=O)[C@H](Cc1ccc(O)cc1)NC(=O)[C@H](CCCNC(=N)N)NC(=O)[C@H](CCCNC(=N)N)NC(=O)[C@H](CCCNC(=N)N)NC(=O)[C@H](C)NC(=O)[C@@H](N)CCSC)[C@@H](C)O)[C@@H](C)CC)C(=O)N[C@@H](CCCNC(=N)N)C(=O)N[C@@H](Cc1ccccc1)C(=O)O [AM18] (H-MARRRYRLPRRRSRRLFSRTALRMHPRNRLRRIMRGGIRF-OH)
M. fortuitum
  MIC: 2 µg/mL (≈ 0.386 µM)
M. smegmatis
  MIC: 0.25 µg/mL (≈ 0.0483 µM)
M. abscessus; M. abscessus strain BK51402
  MIC: 2 µg/mL (≈ 0.386 µM)
M. abscessus; [1]
  MIC: 1 µg/mL (≈ 0.193 µM)
M. abscessus; M. abscessus strain BK51408
  MIC: 4 µg/mL (≈ 0.772 µM)
M. abscessus; M. abscessus strain BK55096
  MIC: 4 µg/mL (≈ 0.772 µM)
M. abscessus; M. abscessus strain BK55691
  MIC: 2 µg/mL (≈ 0.386 µM)
M. abscessus; M. abscessus strain BK58156
  MIC: 16 µg/mL (≈ 3.09 µM)
M. tuberculosis; [2]
  MIC: 4 µg/mL (≈ 0.772 µM)
M. tuberculosis; [3]
  MIC: 1 µg/mL (≈ 0.193 µM)
M. tuberculosis; [4]
  MIC: 2 µg/mL (≈ 0.386 µM)
M. tuberculosis; [5]
  MIC: 1 µg/mL (≈ 0.193 µM)
M. tuberculosis; [6]
  MIC: 2 µg/mL (≈ 0.386 µM)
M. tuberculosis; [7]
  MIC: 1 µg/mL (≈ 0.193 µM)
M. tuberculosis; [8]
  MIC: 1 µg/mL (≈ 0.193 µM)
M. tuberculosis; [9]
  MIC: 2 µg/mL (≈ 0.386 µM)
M. tuberculosis; [10]
  MIC: 0.5 µg/mL (≈ 0.0965 µM)
Mycobacterium species
  activity (MIC) against Mycobacterium species: highest activity
M. kansasii
  MIC: 4 µg/mL (≈ 0.772 µM)
M. scrofulaceum
  MIC: 4 µg/mL (≈ 0.772 µM)
M. avium
  MIC: 2 Tg/mL
M. intracellulare
  MIC: 1 µg/mL (≈ 0.193 µM)

## C[C@H]1[C@H](NC(=O)/C(=N\OC(C)(C)C(=O)O)c2csc(N)n2)C(=O)N1S(=O)(=O)O [Aztreonam]
K. pneumoniae
  FICI of the antibiotic with GN370: 0.375
P. aeruginosa
  FICI of the antibiotic with GN370: 0.375
A. baumannii
  FICI of the antibiotic with GN370: 0.313
E. cloacae
  FICI of the antibiotic with GN370: 0.25

## Cc1nnc(SCC2=C(C(=O)O)N3C(=O)[C@@H](NC(=O)Cn4cnnn4)[C@H]3SC2)s1 [Cefazolin]
K. pneumoniae
  FICI of the antibiotic with GN370: 0.375
A. baumannii
  FICI of the antibiotic with GN370: 0.5

## AM9: Modified variant of Unp2, SEQ ID NO: 97 (M[dR][dR][dR][dR]LS[dR][dR]TS[dR][dR]FF[dR][dK]GL[dK]V[dR][dR][dR]NL[dR]A[dR]PM[dR]GGF[dR]I)
M. fortuitum
  MIC: 4 µg/mL
M. smegmatis
  MIC: 1 µg/mL
M. abscessus
  activity (MIC) against M. abscessus: good activity
M. abscessus; M. abscessus strain BK51402
  MIC: 1 µg/mL
M. abscessus; [1]
  MIC: 4 µg/mL
M. abscessus; M. abscessus strain BK51408
  MIC: 4 µg/mL
M. abscessus; M. abscessus strain BK55096
  MIC: 2 µg/mL
M. abscessus; M. abscessus strain BK55691
  MIC: 2 µg/mL
M. abscessus; M. abscessus strain BK58156
  MIC: 2 µg/mL
M. tuberculosis; [2]
  MIC: 4 µg/mL
M. tuberculosis; [3]
  MIC: 16 µg/mL
M. tuberculosis; [4]
  MIC: 16 µg/mL
M. tuberculosis; [5]
  MIC: 64 µg/mL
M. tuberculosis; [6]
  MIC: 8 µg/mL
M. tuberculosis; [7]
  MIC: 16 µg/mL
M. tuberculosis; [8]
  MIC: 16 µg/mL
M. tuberculosis; [9]
  MIC: 8 µg/mL
M. tuberculosis; [10]
  MIC: 16 µg/mL
Mycobacterium species; [11]
  activity (MIC) against Mycobacterium species: highest activity
M. kansasii
  MIC: 2 µg/mL
M. scrofulaceum
  MIC: 4 µg/mL
M. avium
  MIC: 1 Tg/mL
M. intracellulare
  MIC: 2 µg/mL

## AM16: Modified variant of Chp4, SEQ ID NO: 91 (MA[dR][dR]Y[dR]LS[dR][dR][dR]S[dR][dR]LFS[dR]TAL[dR]MH[dR][dR]N[dR]L[dR][dR]IM[dR]GGI[dR]F)
M. fortuitum
  MIC: 2 µg/mL
M. smegmatis
  MIC: 0.25 µg/mL
M. abscessus
  activity (MIC) against M. abscessus: good activity
M. abscessus; M. abscessus strain BK51402
  MIC: 1 µg/mL
M. abscessus; [1]
  MIC: 2 µg/mL
M. abscessus; M. abscessus strain BK51408
  MIC: 4 µg/mL
M. abscessus; M. abscessus strain BK55096
  MIC: 1 µg/mL
M. abscessus; M. abscessus strain BK55691
  MIC: 1 µg/mL
M. abscessus; M. abscessus strain BK58156
  MIC: 2 µg/mL
M. tuberculosis; [2]
  MIC: 8 µg/mL
M. tuberculosis; [3]
  MIC: 8 µg/mL
M. tuberculosis; [4]
  MIC: 8 µg/mL
M. tuberculosis; [5]
  MIC: 16 µg/mL
M. tuberculosis; [6]
  MIC: 8 µg/mL
M. tuberculosis; [7]
  MIC: 8 µg/mL
M. tuberculosis; [8]
  MIC: 8 µg/mL
M. tuberculosis; [9]
  MIC: 4 µg/mL
M. tuberculosis; [10]
  MIC: 16 µg/mL
Mycobacterium species; [11]
  activity (MIC) against Mycobacterium species: highest activity
M. kansasii
  MIC: 1 µg/mL
M. scrofulaceum
  MIC: 1 µg/mL
M. avium
  MIC: 1 Tg/mL
M. intracellulare
  MIC: 1 µg/mL
